Assays:
[1] = tested on: Huh-7; test: Antiproliferative activity against human Huh-7 cells assessed as reduction in cell viability after 48 hrs by MTT assay; format: functional, cell-based; conditions: Huh-7, 48 h
[2] = tested on: Hep 3B2; test: Antiproliferative activity against human Hep3B cells assessed as cell viability at 10 uM after 48 hrs by MTT assay relative to control; format: functional; conditions: read-out: Activity
[3] = tested on: Huh-7; test: Antiproliferative activity against human Huh-7 cells assessed as cell viability at 10 uM after 48 hrs by MTT assay relative to control; format: functional; conditions: read-out: Activity
[4] = tested on: HepG2; test: Antiproliferative activity against human HepG2 cells assessed as cell viability at 10 uM after 48 hrs by MTT assay relative to control; format: functional; conditions: read-out: Activity
[5] = tested on: Hep 3B2; test: Antiproliferative activity against human Hep3B cells assessed as reduction in cell viability after 48 hrs by MTT assay; format: functional, cell-based
[6] = tested on: WI-38; test: Cytotoxicity against human WI-38 cells assessed as cell viability after 48 hrs by MTT assay; format: cell-based; conditions: WI-38, 48 h
[7] = tested on: HepG2; test: Antiproliferative activity against human HepG2 cells assessed as reduction in cell viability after 48 hrs by MTT assay; format: functional, cell-based; conditions: HepG2, 48 h
[8] = target: T1, Serine/threonine-protein kinase A-Raf (Homo sapiens) (UniProt P10398); test: Inhibition of A-Raf (unknown origin) in presence of [gamma33]-ATP at 10 uM by liquid scintillation counting analysis relative to control
T1 sequence (whole entry): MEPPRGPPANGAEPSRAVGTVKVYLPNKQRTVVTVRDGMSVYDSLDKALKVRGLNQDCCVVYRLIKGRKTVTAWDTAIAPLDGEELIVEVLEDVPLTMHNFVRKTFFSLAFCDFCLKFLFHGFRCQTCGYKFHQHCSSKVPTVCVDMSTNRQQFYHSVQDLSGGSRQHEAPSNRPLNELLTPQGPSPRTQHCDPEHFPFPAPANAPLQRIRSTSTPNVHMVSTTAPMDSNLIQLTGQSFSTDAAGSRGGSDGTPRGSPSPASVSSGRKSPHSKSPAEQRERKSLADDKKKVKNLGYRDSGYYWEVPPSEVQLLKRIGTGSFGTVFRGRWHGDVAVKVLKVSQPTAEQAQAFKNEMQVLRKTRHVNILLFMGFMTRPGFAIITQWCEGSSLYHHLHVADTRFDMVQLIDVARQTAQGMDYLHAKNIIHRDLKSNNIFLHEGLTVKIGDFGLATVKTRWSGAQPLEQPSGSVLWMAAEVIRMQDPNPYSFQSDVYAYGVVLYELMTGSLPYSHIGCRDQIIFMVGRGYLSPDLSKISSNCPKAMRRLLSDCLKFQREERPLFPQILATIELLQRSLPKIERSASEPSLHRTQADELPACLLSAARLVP

[9] = target: T2, Mast/stem cell growth factor receptor Kit (Homo sapiens, UniProt P10721); test: Inhibition of CKIT (unknown origin) in presence of [gamma33]-ATP at 10 uM by liquid scintillation counting analysis relative to control
[10] = target: Dual specificity mitogen-activated protein kinase kinase 1 (Homo sapiens) (UniProt Q02750); test: Inhibition of MEK-1 (unknown origin) in presence of [gamma33]-ATP at 10 uM by liquid scintillation counting analysis relative to control
[11] = target: T3, Platelet-derived growth factor receptor alpha (Homo sapiens, UniProt P16234); test: Inhibition of PDGFRalpha (unknown origin) in presence of [gamma33]-ATP at 10 uM by liquid scintillation counting analysis relative to control
[12] = target: Platelet-derived growth factor receptor beta (Homo sapiens) (UniProt P09619); test: Inhibition of PDGFRbeta (unknown origin) in presence of [gamma33]-ATP at 10 uM by liquid scintillation counting analysis relative to control
[13] = target: RAF proto-oncogene serine/threonine-protein kinase (Homo sapiens) (UniProt P04049); test: Inhibition of C-Raf (unknown origin) in presence of [gamma33]-ATP at 10 uM by liquid scintillation counting analysis relative to control
[14] = target: T4, Vascular endothelial growth factor receptor 3 (Homo sapiens, UniProt P35916); test: Inhibition of Flt4 (unknown origin) in presence of [gamma33]-ATP at 10 uM by liquid scintillation counting analysis relative to control
[15] = target: T4, Vascular endothelial growth factor receptor 3; test: Inhibition of Flt4 (unknown origin) in presence of [gamma33]-ATP by liquid scintillation counting analysis
[16] = target: T5, Vascular endothelial growth factor receptor 2 (Homo sapiens, UniProt P35968); test: Inhibition of KDR (unknown origin) in presence of [gamma33]-ATP by liquid scintillation counting analysis
[17] = target: T2, Mast/stem cell growth factor receptor Kit; test: Inhibition of CKIT (unknown origin) in presence of [gamma33]-ATP by liquid scintillation counting analysis
[18] = target: T3, Platelet-derived growth factor receptor alpha; test: Inhibition of PDGFRalpha (unknown origin) in presence of [gamma33]-ATP by liquid scintillation counting analysis
[19] = target: T5, Vascular endothelial growth factor receptor 2; test: Inhibition of VEGFR2 autophosphorylation in VEGF-stimulated human HepG2 cells after 2 hrs Western blot analysis; conditions: dose 1-3 µM
[20] = tested on: HepG2; test: Induction of apoptosis in human HepG2 cells assessed as increase in caspase 3/7 activity at 1.95 uM; format: functional
[21] = tested on: HepG2; test: Induction of necrosis in human HepG2 cells assessed as increase in LDH release at 1.95 uM; format: functional
[22] = target: hERG (KCNH2) (Homo sapiens, UniProt Q12809); test: Potency index, ratio of E-4031 IC50 to compound IC50 for inhibition of human ERG; conditions: read-out: Ratio IC50

T2 sequence (P10721 whole entry): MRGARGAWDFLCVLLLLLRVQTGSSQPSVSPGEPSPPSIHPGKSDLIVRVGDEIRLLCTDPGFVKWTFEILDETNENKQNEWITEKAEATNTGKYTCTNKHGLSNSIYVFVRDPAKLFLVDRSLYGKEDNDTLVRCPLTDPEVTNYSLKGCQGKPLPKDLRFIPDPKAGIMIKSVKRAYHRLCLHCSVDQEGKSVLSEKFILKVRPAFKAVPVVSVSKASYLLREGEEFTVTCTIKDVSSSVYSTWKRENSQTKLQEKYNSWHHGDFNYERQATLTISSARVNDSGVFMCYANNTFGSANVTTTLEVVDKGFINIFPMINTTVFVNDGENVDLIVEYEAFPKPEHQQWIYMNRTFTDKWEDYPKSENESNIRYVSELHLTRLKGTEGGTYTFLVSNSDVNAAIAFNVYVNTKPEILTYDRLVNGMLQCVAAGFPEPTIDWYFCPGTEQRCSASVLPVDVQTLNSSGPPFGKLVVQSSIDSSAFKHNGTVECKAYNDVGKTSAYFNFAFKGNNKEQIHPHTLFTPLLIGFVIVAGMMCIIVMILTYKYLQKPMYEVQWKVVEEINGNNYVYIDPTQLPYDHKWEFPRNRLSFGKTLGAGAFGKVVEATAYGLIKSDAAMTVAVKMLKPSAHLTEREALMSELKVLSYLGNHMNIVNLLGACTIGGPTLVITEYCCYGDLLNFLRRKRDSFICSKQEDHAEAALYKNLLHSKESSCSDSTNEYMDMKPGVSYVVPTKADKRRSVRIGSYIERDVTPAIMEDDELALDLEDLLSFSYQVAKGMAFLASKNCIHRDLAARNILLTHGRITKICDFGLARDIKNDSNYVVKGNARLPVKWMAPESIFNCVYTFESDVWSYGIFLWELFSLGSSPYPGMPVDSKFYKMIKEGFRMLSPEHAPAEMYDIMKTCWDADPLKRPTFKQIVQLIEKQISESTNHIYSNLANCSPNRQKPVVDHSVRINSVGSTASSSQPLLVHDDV
T3 sequence (P16234 whole entry): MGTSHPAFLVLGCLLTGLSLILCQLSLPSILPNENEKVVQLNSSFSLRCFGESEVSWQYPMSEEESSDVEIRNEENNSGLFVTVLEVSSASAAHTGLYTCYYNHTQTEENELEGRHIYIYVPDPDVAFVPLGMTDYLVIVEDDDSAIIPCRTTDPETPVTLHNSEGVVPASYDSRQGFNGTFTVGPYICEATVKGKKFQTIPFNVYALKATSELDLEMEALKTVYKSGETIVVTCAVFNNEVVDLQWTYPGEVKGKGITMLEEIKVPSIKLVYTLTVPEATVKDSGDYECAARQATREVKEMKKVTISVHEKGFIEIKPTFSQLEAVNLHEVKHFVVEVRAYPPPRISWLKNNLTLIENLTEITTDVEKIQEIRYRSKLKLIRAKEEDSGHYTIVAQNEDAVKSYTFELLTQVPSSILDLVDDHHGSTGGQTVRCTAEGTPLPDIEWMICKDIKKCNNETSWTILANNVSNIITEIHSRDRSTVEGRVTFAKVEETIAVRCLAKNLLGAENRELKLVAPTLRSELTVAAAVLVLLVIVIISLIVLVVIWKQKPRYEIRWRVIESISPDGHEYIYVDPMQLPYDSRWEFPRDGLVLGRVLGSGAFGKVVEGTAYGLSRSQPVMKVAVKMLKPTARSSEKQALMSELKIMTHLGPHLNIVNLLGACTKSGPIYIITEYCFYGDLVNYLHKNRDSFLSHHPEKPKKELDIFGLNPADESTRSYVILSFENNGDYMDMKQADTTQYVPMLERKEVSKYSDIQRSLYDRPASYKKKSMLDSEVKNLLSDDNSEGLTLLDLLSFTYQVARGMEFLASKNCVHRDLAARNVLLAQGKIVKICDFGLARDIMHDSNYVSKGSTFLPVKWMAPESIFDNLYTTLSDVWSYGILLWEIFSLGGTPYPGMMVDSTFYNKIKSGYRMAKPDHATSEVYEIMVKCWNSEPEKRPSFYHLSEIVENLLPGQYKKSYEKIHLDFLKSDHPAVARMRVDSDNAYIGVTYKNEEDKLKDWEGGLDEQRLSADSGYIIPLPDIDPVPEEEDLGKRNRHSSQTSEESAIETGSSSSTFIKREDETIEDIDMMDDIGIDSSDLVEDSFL
T5 sequence (P35968 whole entry): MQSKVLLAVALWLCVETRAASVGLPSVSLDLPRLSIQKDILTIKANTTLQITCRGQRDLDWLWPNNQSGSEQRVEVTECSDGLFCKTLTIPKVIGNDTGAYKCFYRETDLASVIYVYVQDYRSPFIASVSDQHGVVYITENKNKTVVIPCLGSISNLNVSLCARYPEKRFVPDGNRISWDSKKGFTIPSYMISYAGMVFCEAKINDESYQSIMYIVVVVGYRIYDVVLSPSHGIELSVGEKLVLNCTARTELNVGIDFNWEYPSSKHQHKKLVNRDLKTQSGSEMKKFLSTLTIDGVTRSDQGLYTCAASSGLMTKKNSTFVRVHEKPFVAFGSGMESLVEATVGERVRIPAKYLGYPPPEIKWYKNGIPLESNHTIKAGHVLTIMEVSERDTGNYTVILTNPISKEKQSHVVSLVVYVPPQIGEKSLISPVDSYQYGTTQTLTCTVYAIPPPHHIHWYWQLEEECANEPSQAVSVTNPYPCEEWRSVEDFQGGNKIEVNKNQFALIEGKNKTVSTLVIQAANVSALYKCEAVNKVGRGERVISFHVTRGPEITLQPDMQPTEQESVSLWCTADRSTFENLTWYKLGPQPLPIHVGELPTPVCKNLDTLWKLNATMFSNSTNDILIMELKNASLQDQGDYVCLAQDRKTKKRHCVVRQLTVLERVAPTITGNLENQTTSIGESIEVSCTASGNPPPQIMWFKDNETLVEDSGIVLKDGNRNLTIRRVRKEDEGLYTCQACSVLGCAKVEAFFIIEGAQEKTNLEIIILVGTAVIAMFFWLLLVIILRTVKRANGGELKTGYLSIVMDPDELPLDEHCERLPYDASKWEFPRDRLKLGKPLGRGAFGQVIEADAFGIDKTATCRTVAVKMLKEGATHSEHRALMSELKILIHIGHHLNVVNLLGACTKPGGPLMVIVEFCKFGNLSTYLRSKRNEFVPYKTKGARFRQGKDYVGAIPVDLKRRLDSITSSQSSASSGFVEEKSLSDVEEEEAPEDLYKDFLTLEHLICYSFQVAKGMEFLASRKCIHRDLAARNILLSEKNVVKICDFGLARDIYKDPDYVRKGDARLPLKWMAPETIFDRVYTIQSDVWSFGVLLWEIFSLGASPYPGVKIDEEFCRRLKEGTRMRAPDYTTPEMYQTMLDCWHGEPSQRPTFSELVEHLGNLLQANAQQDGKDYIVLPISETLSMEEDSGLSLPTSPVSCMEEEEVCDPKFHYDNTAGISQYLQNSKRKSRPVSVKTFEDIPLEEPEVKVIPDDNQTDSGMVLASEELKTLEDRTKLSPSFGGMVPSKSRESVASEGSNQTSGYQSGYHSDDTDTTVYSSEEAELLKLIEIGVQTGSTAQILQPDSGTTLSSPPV
Dual specificity mitogen-activated protein kinase kinase 1 (Homo sapiens), sequence (Q02750 whole entry): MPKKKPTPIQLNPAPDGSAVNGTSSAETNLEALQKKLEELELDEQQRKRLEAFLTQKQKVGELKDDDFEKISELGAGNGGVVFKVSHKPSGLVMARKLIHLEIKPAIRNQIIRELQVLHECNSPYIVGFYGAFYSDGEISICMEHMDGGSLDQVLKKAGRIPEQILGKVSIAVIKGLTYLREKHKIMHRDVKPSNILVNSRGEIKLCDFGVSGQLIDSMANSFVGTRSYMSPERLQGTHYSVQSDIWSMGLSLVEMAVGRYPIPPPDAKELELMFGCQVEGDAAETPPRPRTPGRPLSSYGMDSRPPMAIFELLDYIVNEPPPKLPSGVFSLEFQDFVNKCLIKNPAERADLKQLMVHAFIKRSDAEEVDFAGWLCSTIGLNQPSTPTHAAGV
Platelet-derived growth factor receptor beta (Homo sapiens), sequence (P09619 whole entry): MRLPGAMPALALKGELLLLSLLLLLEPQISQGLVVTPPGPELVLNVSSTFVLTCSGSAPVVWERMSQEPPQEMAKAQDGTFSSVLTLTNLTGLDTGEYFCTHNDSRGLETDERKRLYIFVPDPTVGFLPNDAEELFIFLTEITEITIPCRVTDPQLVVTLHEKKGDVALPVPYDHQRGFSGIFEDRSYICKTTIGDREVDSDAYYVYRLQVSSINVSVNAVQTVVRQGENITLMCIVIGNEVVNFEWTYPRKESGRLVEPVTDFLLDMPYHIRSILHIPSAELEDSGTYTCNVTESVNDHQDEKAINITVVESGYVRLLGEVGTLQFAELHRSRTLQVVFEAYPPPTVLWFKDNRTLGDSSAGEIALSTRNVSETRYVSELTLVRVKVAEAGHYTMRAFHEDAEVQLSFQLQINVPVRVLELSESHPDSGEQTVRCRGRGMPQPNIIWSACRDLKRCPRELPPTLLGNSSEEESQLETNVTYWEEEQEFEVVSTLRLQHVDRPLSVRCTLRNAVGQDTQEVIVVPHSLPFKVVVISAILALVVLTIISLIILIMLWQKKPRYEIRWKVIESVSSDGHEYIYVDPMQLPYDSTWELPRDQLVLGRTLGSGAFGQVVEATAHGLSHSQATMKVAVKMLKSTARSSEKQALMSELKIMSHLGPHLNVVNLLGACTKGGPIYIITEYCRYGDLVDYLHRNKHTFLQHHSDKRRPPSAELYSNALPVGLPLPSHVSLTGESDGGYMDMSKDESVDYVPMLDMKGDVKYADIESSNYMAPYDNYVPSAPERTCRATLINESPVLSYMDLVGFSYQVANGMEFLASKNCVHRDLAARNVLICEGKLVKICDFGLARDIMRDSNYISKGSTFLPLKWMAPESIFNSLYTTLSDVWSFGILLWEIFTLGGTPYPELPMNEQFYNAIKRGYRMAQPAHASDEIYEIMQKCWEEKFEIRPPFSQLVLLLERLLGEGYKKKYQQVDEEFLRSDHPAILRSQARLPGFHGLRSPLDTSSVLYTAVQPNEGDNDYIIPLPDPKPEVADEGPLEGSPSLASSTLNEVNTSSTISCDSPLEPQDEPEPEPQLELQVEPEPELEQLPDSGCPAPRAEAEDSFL

## CNC(=O)c1cc(-n2ccc3cc(NC(=O)Nc4cc(C(F)(F)F)cc(C(F)(F)F)c4)ccc32)ccn1
[1]
  IC50: 5.01 µM
[2]
  viability at 10 µM: 73%
[3]
  viability at 10 µM: 30%
[4]
  viability at 10 µM: 55%
[5]
  IC50: 29.8 µM
[6]
  IC50: > 30 µM

## CNC(=O)c1cc(-n2ccc3cc(NC(=O)Nc4ccccc4)ccc32)ccn1
[2]
  viability at 10 µM: 66%
[3]
  viability at 10 µM: 74%
[4]
  viability at 10 µM: 82%

## CNC(=O)c1cc(-n2ccc3cc(NS(=O)(=O)c4cc(C(F)(F)F)cc(C(F)(F)F)c4)ccc32)ccn1
[2]
  viability at 10 µM: 92%
[3]
  viability at 10 µM: 98%
[4]
  viability at 10 µM: 96%

## CNC(=O)c1cc(-n2ccc3cc(NC(=O)c4cccc(C(F)(F)F)c4)ccc32)ccn1
[7]
  IC50: 2.67 µM
[2]
  viability at 10 µM: 72%
[3]
  viability at 10 µM: 77%
[4]
  viability at 10 µM: 34%
[6]
  IC50: 6.5 µM

## CNC(=O)c1cc(-n2ccc3cc(NC(=O)Nc4ccc(Cl)c(C(F)(F)F)c4)ccc32)ccn1
[1]
  IC50: 15.4 µM
[2]
  viability at 10 µM: 53%
[3]
  viability at 10 µM: 40%
[4]
  viability at 10 µM: 55%
[5]
  IC50: 12.3 µM
[6]
  IC50: 26.7 µM

## CNC(=O)c1cc(-n2ccc3cc(NC(=S)Nc4cccc(C(F)(F)F)c4)ccc32)ccn1
[2]
  viability at 10 µM: 99%
[3]
  viability at 10 µM: 109%
[4]
  viability at 10 µM: 81%

## CNC(=O)c1cc(-n2ccc3cc(NC(=O)Nc4ccc(F)c(C(F)(F)F)c4)ccc32)ccn1
[2]
  viability at 10 µM: 49%
[3]
  viability at 10 µM: 65%
[4]
  viability at 10 µM: 67%

## CNC(=O)c1cc(-n2ccc3cc(NC(=O)c4ccc(Cl)c(Cl)c4)ccc32)ccn1
[2]
  viability at 10 µM: 79%
[3]
  viability at 10 µM: 61%
[4]
  viability at 10 µM: 80%

## CNC(=O)c1cc(-n2ccc3cc(NS(=O)(=O)c4ccccc4)ccc32)ccn1
[2]
  viability at 10 µM: 93%
[3]
  viability at 10 µM: 105%
[4]
  viability at 10 µM: 98%

## CNC(=O)c1cc(Oc2ccc(NC(=O)Nc3ccc(Cl)c(C(F)(F)F)c3)cc2)ccn1 [SORAFENIB]
[7]
  IC50: 7.22 µM
[1]
  IC50: 7.55 µM
[2]
  viability at 10 µM: 33%
[3]
  viability at 10 µM: 21%
[4]
  viability at 10 µM: 35%
[5]
  IC50: 8.62 µM
[6]
  IC50: > 30 µM
[8]
  inhibition: 99%
[9]
  inhibition: 65.8%
[10]
  inhibition: 37.7%
[11]
  inhibition: 99.4%
[12]
  inhibition: 99.1%

## CNC(=O)c1cc(-n2ccc3cc(NC(=O)Nc4ccc(N5CCN(C)CC5)c(C(F)(F)F)c4)ccc32)ccn1
[7]
  IC50: 1.95 µM
[1]
  IC50: 4.31 µM
[2]
  viability at 10 µM: 92%
[3]
  viability at 10 µM: 20%
[4]
  viability at 10 µM: 27%
[5]
  IC50: 8.01 µM
[6]
  IC50: > 30 µM
[8]
  inhibition: -4%
[9]
  inhibition: 70.5%
[13]
  inhibition: -0.5%
[14]
  inhibition: 93.5%
[10]
  inhibition: 11.5%
[11]
  inhibition: 71.5%
[12]
  inhibition: 47.5%
[15]
  IC50: 0.0957 µM
[16]
  IC50: 0.173 µM
[17]
  IC50: 5 µM
[18]
  IC50: > 5 µM
[19]
  inhibition: Dose-dependent effect
[20]
  Activity: 67.45%
[21]
  Activity: 21.5%
[22]
  selectivity ratio: 3720

## CNC(=O)c1cc(-n2ccc3cc(NC(=S)Nc4ccc(Cl)c(C(F)(F)F)c4)ccc32)ccn1
[1]
  IC50: 21.5 µM
[2]
  viability at 10 µM: 40%
[3]
  viability at 10 µM: 76%
[4]
  viability at 10 µM: 60%
[5]
  IC50: 13.9 µM
[6]
  IC50: 28.8 µM

## CNC(=O)c1cc(-n2ccc3cc(NC(=S)Nc4ccc(Cl)c(Cl)c4)ccc32)ccn1
[2]
  viability at 10 µM: 86%
[3]
  viability at 10 µM: 89%
[4]
  viability at 10 µM: 79%

## CNC(=O)c1cc(-n2ccc3cc(NC(=O)c4ccc(N5CCOCC5)c(C(F)(F)F)c4)ccc32)ccn1
[7]
  IC50: 237 µM
[2]
  viability at 10 µM: 53%
[3]
  viability at 10 µM: 46%
[4]
  viability at 10 µM: 72%
[6]
  IC50: 8.48 µM

## CNC(=O)c1cc(-n2ccc3cc(NC(=O)Nc4ccc(Cl)c(Cl)c4)ccc32)ccn1
[1]
  IC50: 7.96 µM
[2]
  viability at 10 µM: 46%
[3]
  viability at 10 µM: 43%
[4]
  viability at 10 µM: 57%
[5]
  IC50: 7.94 µM
[6]
  IC50: 23.1 µM

## CNC(=O)c1cc(-n2ccc3cc(NC(=S)Nc4ccccc4)ccc32)ccn1
[2]
  viability at 10 µM: 64%
[3]
  viability at 10 µM: 121%
[4]
  viability at 10 µM: 100%

## CNC(=O)c1cc(-n2ccc3cc(NC(=S)Nc4cc(C(F)(F)F)cc(C(F)(F)F)c4)ccc32)ccn1
[2]
  viability at 10 µM: 55%
[3]
  viability at 10 µM: 40%
[4]
  viability at 10 µM: 53%

## CNC(=O)c1cc(-n2ccc3cc(NC(=O)Nc4cccc(C(F)(F)F)c4)ccc32)ccn1
[2]
  viability at 10 µM: 58%
[3]
  viability at 10 µM: 68%
[4]
  viability at 10 µM: 76%

## CNC(=O)c1cc(-n2ccc3cc(NC(=O)Nc4ccc(N5CCOCC5)c(C(F)(F)F)c4)ccc32)ccn1
[7]
  IC50: 9.35 µM
[1]
  IC50: 5.6 µM
[2]
  viability at 10 µM: 27%
[3]
  viability at 10 µM: 28%
[4]
  viability at 10 µM: 47%
[6]
  IC50: > 30 µM

## CNC(=O)c1cc(-n2ccc3cc(NC(=O)c4ccc(F)c(C(F)(F)F)c4)ccc32)ccn1
[2]
  viability at 10 µM: 59%
[3]
  viability at 10 µM: 40%
[4]
  viability at 10 µM: 67%

## CNC(=O)c1cc(-n2ccc3cc(NC(=O)c4cc(C(F)(F)F)cc(C(F)(F)F)c4)ccc32)ccn1
[2]
  viability at 10 µM: 111%
[3]
  viability at 10 µM: 77%
[4]
  viability at 10 µM: 90%

## CNC(=O)c1cc(-n2ccc3cc(NS(=O)(=O)c4cccc(C(F)(F)F)c4)ccc32)ccn1
[2]
  viability at 10 µM: 84%
[3]
  viability at 10 µM: 94%
[4]
  viability at 10 µM: 88%

## CNC(=O)c1cc(-n2ccc3cc(NS(=O)(=O)c4ccc(Cl)c(Cl)c4)ccc32)ccn1
[2]
  viability at 10 µM: 92%
[3]
  viability at 10 µM: 94%
[4]
  viability at 10 µM: 97%

## CNC(=O)c1cc(-n2ccc3cc(NS(=O)(=O)c4ccc(Cl)c(C(F)(F)F)c4)ccc32)ccn1
[2]
  viability at 10 µM: 92%
[3]
  viability at 10 µM: 101%
[4]
  viability at 10 µM: 97%

## CNC(=O)c1cc(-n2ccc3cc(NC(=O)c4ccccc4)ccc32)ccn1
[2]
  viability at 10 µM: 29%
[3]
  viability at 10 µM: 105%
[4]
  viability at 10 µM: 99%

## CNC(=O)c1cc(-n2ccc3cc(NC(=O)c4ccc(Cl)c(C(F)(F)F)c4)ccc32)ccn1
[2]
  viability at 10 µM: 54%
[3]
  viability at 10 µM: 42%
[4]
  viability at 10 µM: 32%

— ChEMBL document CHEMBL4732124 (Eur J Med Chem, 2021)
